Assay results from patent US10717716B2, “1,3,4-oxadiazole derivative compounds as histone deacetylase 6 inhibitor, and the pharmaceutical composition comprising the same” (Chong Kun Dang Pharmaceutical Corp., priority 2015, dated 2020).

Key:
human recombinant HDAC1 = biological target: T1, human recombinant HDAC1 (Homo sapiens, UniProt Q13547); assay: HDAC1 enzyme activity inhibition assay (HDAC Fluorimetric Drug Discovery Kit); format: biochemical; settings: human recombinant HDAC1, Fluor de Lys substrate 10 μM, 30° C. 60 minutes
T1 construct: purchased Enzo Life Science BML-SE456
Summary of the method: (§1)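 Fluorimetric deacetylase assay: 5-fold serial compound dilutions, 0.3 μg recombinant human enzyme (HDAC1 or HDAC6, same protocol), 10 μM Fluor de Lys-SIRT1 substrate, 60 min at 30 °C. Signal developed 30 min, measured at 360/460 nm; IC50 values derived.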

human recombinant HDAC6 = biological target: T2, human recombinant HDAC6 (Homo sapiens, UniProt Q9UBN7); assay: HDAC6 enzyme activity inhibition assay (HDAC Fluorimetric Drug Discovery Kit); format: biochemical; settings: for HDAC6 selectivity (fold): HDAC6 over HDAC1; for IC50: human recombinant HDAC6, same protocol as HDAC1, read-out: HDAC6
T2 construct: purchased Calbiochem 382180
T2 sequence (Q9UBN7 1-1215): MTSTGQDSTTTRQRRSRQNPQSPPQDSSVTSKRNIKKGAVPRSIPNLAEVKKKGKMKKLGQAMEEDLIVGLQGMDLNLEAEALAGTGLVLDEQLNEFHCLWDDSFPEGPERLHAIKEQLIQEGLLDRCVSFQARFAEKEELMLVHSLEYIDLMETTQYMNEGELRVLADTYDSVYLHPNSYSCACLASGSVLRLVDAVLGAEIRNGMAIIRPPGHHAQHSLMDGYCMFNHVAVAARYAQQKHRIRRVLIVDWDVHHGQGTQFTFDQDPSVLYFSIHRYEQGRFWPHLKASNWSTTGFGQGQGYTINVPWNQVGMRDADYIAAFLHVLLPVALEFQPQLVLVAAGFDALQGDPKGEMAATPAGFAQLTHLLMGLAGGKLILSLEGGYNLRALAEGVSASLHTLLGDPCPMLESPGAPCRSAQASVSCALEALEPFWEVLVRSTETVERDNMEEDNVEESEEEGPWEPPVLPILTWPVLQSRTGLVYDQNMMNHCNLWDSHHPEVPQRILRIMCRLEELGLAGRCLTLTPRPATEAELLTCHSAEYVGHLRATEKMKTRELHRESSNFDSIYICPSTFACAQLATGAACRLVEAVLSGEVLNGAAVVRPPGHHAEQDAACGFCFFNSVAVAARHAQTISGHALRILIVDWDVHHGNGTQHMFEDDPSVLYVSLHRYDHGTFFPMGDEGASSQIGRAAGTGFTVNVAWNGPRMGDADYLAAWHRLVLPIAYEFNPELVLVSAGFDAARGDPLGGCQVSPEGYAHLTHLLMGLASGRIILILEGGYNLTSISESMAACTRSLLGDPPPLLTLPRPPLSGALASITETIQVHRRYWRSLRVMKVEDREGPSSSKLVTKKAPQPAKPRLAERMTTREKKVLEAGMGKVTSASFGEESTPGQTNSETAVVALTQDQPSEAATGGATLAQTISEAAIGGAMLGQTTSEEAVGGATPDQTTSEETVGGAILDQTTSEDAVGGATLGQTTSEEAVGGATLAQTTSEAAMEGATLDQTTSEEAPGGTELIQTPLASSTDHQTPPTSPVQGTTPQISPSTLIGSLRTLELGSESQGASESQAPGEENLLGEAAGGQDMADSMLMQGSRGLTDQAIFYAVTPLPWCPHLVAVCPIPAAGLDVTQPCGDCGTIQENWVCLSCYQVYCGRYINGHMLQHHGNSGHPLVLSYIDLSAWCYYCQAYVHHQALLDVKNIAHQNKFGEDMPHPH
Summary of the method: as §1

T1 sequence (Q13547 whole entry): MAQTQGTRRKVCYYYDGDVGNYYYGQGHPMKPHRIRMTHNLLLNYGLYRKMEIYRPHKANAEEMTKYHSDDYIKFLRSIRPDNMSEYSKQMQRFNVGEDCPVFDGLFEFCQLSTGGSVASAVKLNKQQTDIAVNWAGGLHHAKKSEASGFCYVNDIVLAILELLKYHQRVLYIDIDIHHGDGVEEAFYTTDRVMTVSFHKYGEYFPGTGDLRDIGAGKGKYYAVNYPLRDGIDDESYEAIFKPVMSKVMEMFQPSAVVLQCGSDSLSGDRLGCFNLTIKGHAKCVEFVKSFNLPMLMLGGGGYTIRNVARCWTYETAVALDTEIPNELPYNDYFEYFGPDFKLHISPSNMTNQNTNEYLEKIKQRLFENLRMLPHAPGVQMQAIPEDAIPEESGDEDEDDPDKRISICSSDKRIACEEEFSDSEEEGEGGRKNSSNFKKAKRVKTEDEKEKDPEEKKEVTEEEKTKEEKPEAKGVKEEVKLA

IC50 (human recombinant HDAC1) [µM]	HDAC6 selectivity (fold) (human recombinant HDAC6)	IC50 (human recombinant HDAC6) [µM]	SMILES
42.6	2023	0.021	O=C(N1CCS(=O)(=O)CC1)N(Cc1ccc(-c2nnc(C(F)F)o2)cc1F)c1ccccc1F [Compound 21808, N-(4-(5-(difluoromethyl)-1,3,4-oxadiazol-2-yl)-2-fluorobenzyl)-N-(2-fluorophenyl)thiomorpholine-4-carboxamide 1,1-dioxide]
15.7	883	0.018	O=C(N1CCS(=O)(=O)CC1)N(Cc1ccc(-c2nnc(C(F)F)o2)cc1F)c1cccc(Cl)c1 [Compound 21810, N-(3-chlorophenyl)-N-(4-(5-(difluoromethyl)-1,3,4-oxadiazol-2-yl)-2-fluorobenzyl)thiomorpholine-4-carboxamide 1,1-dioxide]
20.8	370	0.056	O=C(N1CCS(=O)(=O)CC1)N(Cc1ccc(-c2nnc(C(F)F)o2)cn1)c1ccc(-c2ccncc2)cc1 [Compound 21823, N-((5-(5-(difluoromethyl)-1,3,4-oxadiazol-2-yl)pyridin-2-yl)methyl)-N-(4-(pyridin-4-yl)phenyl)thiomorpholine-4-carboxamide 1,1-dioxide]
17.7	563	0.031	O=C(N1CCS(=O)(=O)CC1)N(Cc1ccc(-c2nnc(C(F)F)o2)cn1)c1ccc(-c2cccnc2)cc1 [Compound 21824, N-((5-(5-(difluoromethyl)-1,3,4-oxadiazol-2-yl)pyridin-2-yl)methyl)-N-(4-(pyridin-3-yl)phenyl)thiomorpholine-4-carboxamide 1,1-dioxide]
47	1542	0.031	O=C(N1CCS(=O)(=O)CC1)N(Cc1ccc(-c2nnc(C(F)F)o2)cn1)c1ccc(F)cc1 [Compound 21829, N-((5-(5-(difluoromethyl)-1,3,4-oxadiazol-2-yl)pyridin-2-yl)methyl)-N-(4-fluorophenyl)thiomorpholine-4-carboxamide 1,1-dioxide]
40.9	1298	0.032	O=C(N1CCS(=O)(=O)CC1)N(Cc1ccc(-c2nnc(C(F)F)o2)cn1)c1cccc(F)c1 [Compound 21830, N-((5-(5-(difluoromethyl)-1,3,4-oxadiazol-2-yl)pyridin-2-yl)methyl)-N-(3-fluorophenyl)thiomorpholine-4-carboxamide 1,1-dioxide]
64.4	1538	0.042	O=C(N1CCS(=O)(=O)CC1)N(Cc1ccc(-c2nnc(C(F)F)o2)cn1)c1ccc(Cl)cc1 [Compound 21831, N-(4-chlorophenyl)-N-((5-(5-(difluoromethyl)-1,3,4-oxadiazol-2-yl)pyridin-2-yl)methyl)thiomorpholine-4-carboxamide 1,1-dioxide]
56.7	1689	0.034	O=C(N1CCOCC1)N(Cc1ccc(-c2nnc(C(F)F)o2)cn1)c1ccc(F)cc1 [Compound 21839, N-((5-(5-(difluoromethyl)-1,3,4-oxadiazol-2-yl)pyridin-2-yl)methyl)-N-(4-fluorophenyl) morpholine-4-carboxamide]
31.9	170	0.188	O=C(N1CCOCC1)N(Cc1ccc(-c2nnc(C(F)(F)F)o2)cn1)c1ccc(F)cc1 [Compound 21840, N-(4-fluorophenyl)-N-((5-(5-(trifluoromethyl)-1,3,4-oxadiazol-2-yl)pyridin-2-yl)methyl) morpholine-4-carboxamide]
25.2	135	0.187	O=C(N1CCOCC1)N(Cc1ccc(-c2nnc(C(F)(F)F)o2)cc1F)c1ccc(F)cc1 [Compound 21842, N-(2-fluoro-4-(5-(trifluoromethyl)-1,3,4-oxadiazol-2-yl)benzyl)-N-(4-fluorophenyl)morpholine-4-carboxamide]
32.3	404	0.08	O=C(N1CCOCC1)N(Cc1ccc(-c2nnc(C(F)(F)F)o2)cn1)c1cccc(F)c1 [Compound 21844, N-(3-fluorophenyl)-N-((5-(5-(trifluoromethyl)-1,3,4-oxadiazol-2-yl)pyridin-2-yl)methyl) morpholine-4-carboxamide]
62.3	1919	0.032	O=C(N1CCOCC1)N(Cc1ccc(-c2nnc(C(F)F)o2)cc1F)c1cccc(F)c1 [Compound 21845, N-(4-(5-(difluoromethyl)-1,3,4-oxadiazol-2-yl)-2-fluorobenzyl)-N-(3-fluorophenyl)morpholine-4-carboxamide]
21.3	173	0.123	O=C(N1CCOCC1)N(Cc1ccc(-c2nnc(C(F)(F)F)o2)cc1F)c1cccc(F)c1 [Compound 21846, N-(2-fluoro-4-(5-(trifluoromethyl)-1,3,4-oxadiazol-2-yl)benzyl)-N-(3-fluorophenyl)morpholine-4-carboxamide]
70.2	1811	0.039	O=C(N1CCOCC1)N(Cc1ccc(-c2nnc(C(F)F)o2)cn1)c1ccc(Cl)cc1 [Compound 21847, N-(4-chlorophenyl)-N-((5-(5-(difluoromethyl)-1,3,4-oxadiazol-2-yl)pyridin-2-yl)methyl) morpholine-4-carboxamide]
41.9	161	0.261	O=C(N1CCOCC1)N(Cc1ccc(-c2nnc(C(F)(F)F)o2)cn1)c1ccc(Cl)cc1 [Compound 21848, N-(4-chlorophenyl)-N-((5-(5-(trifluoromethyl)-1,3,4-oxadiazol-2-yl)pyridin-2-yl)methyl) morpholine-4-carboxamide]
68.6	157	0.436	O=C(N1CCOCC1)N(Cc1ccc(-c2nnc(C(F)(F)F)o2)cc1F)c1ccc(Cl)cc1 [Compound 21850, N-(4-chlorophenyl)-N-(2-fluoro-4-(5-(trifluoromethyl)-1,3,4-oxadiazol-2-yl)benzyl)morpholine-4-carboxamide]
15.3	118	0.131	O=C(N1CCOCC1)N(Cc1ccc(-c2nnc(C(F)(F)F)o2)cn1)c1cccc(Cl)c1 [Compound 21852, N-(3-chlorophenyl)-N-((5-(5-(trifluoromethyl)-1,3,4-oxadiazol-2-yl)pyridin-2-yl)methyl) morpholine-4-carboxamide]
28.8	540	0.053	O=C(N1CCOCC1)N(Cc1ccc(-c2nnc(C(F)F)o2)cc1F)c1cccc(Cl)c1 [Compound 21853, N-(3-chlorophenyl)-N-(4-(5-(difluoromethyl)-1,3,4-oxadiazol-2-yl)-2-fluorobenzyl)morpholine-4-carboxamide]
12.7	46	0.276	O=C(N1CCOCC1)N(Cc1ccc(-c2nnc(C(F)(F)F)o2)cc1F)c1cccc(Cl)c1 [Compound 21854, N-(3-chlorophenyl)-N-(2-fluoro-4-(5-(trifluoromethyl)-1,3,4-oxadiazol-2-yl)benzyl)morpholine-4-carboxamide]
23.9	182	0.131	O=C(N1CCOCC1)N(Cc1ccc(-c2nnc(C(F)(F)F)o2)cn1)c1ccc(F)cc1F [Compound 21857, N-(2,4-difluorophenyl)-N-((5-(5-(trifluoromethyl)-1,3,4-oxadiazol-2-yl)pyridin-2-yl)methyl)morpholine-4-carboxamide]
37.1	966	0.038	O=C(N1CCOCC1)N(Cc1ccc(-c2nnc(C(F)F)o2)cc1F)c1ccc(F)cc1F [Compound 21858, N-(4-(5-(difluoromethyl)-1,3,4-oxadiazol-2-yl)-2-fluorobenzyl)-N-(2,4-difluorophenyl)morpholine-4-carboxamide]
